Test results reported in patent US5585373A, “3-(7'-oxo-1'-aza-4'-oxabicyclo[3.2.0]-hept-3'-YL)propionic acid derivative as antitumor agent” (priority 1994, dated 1996).
≈ marks a conversion by molar mass, not a printed value.

Legend:
[1] = system: KB cells; experiment: In Vitro KB Cell Cytotoxicity Assay; type: cell-based; details: Homo sapiens, 72 h, crystal violet staining, 3 days incubation
Procedure: Pharmacological Test 1 (In Vitro KB Cell Cytotoxicity Assay)
The cytotoxicity against KB cells was determined in accordance with a protein staining method (Grillis et al., Anal. Biochem., 159, 109 (1986)) using crystal violet. Stated more specifically, KB cells were incubated in an Eagle's minimum medium containing 10% FCS in a CO2 incubator at 37° C. The number of the cells was counted with a hemocytometer. A 100 μl quantity of the cell suspension, 3×10^4 cells/ml, was placed into each well of a 96-well plate and incubated for 24 hours. Portions (100 μl) of the drug diluted to final concentrations of 10, 1, 0.1, 0.01 and 0.001 μg/ml were added, as one dosage, to three wells, respectively. A drug-free medium was added to the wells of the control group. After incubation for 3 days, 25 μl of 25% glutaraldehyde was added and fixed for 15 minutes, followed by washing with water and drying. A 100 μl quantity of 0.05% crystal violet was added for 15 minutes of staining, followed by washing with water and drying. Extraction was performed with 100 μl of 0.05M NaH2 PO4 /EtOH (1:1 volume ratio). The absorbance was measured at a wavelength of 540 nm with a multi-scan spectrophotometer. The percent cell growth inhibition was calculated based on the absorbance by the following equation [formula]
The IC50 value (concentration of the drug for inhibiting the cell growth by 50%) was calculated through log-logit transformation of the dose-response curve and linear regression.

[2] = system: Sarcoma 180; experiment: In Vivo Antitumor Activity against Sarcoma 180; details: for Mortality in 12 days: intraperitoneal, every four days, three times, ICR mice; for Cell growth inhibition rate: ip
Procedure: Pharmacological Test 2 (In Vivo Antitumor Activity against Sarcoma 180)
5×10^6 cells of transplantable mouse tumor, Sarcoma 180, were subcutaneously transplanted in the dorsal portion of 6-week-old male ICR mice (6-7 mice in each group). The test drug was dissolved in physiological saline containing 0.25 % Tween 80 and 3.5% dimethyl sulfoxide. The solution was intraperitoneally administered to the mice every four days, starting the administration 24 hours after the transplantation, three times in total. On the 12th day after the transplantation, the tumors were removed from the bodies and weighed. The average weight of the tumors in the test group and the corresponding weight in the control group were calculated to determine the ratio of tumor growth inhibition.

O=C(OCc1ccccc1)[C@H](O)[C@@H](O)[C@H]1CN2C(=O)C[C@@H]2O1 [Compound 4, benzyl(2R,3R)-2,3-dihydroxy-3-[(3'R,5'S)-7'-oxo-1'-aza-4'-oxabicylo[3.2.0]hept-3'-yl]propionate]
IC50 [1]: 0.07 µg/mL (≈ 0.228 µM)

O=C(OCc1ccccc1)[C@@H](O)[C@H](O)[C@H]1CN2C(=O)C[C@@H]2O1 [Compound 5, benzyl(2S,3S)-2,3-dihydroxy-3-[(3'R,5'S)-7'-oxo-1'-aza-4'-oxabicyclo[3.2.0]hept-3'-yl]propionate]
IC50 [1]: 0.3 µg/mL (≈ 0.976 µM)

O=C(OCc1ccccc1)[C@@H](O)[C@@H](O)[C@H]1CN2C(=O)C[C@@H]2O1 [Compound 6, benzyl (2S,3R)-2,3-dihydroxy-3-[(3'R,5'S)-7'-oxo-1'-aza-4'-oxabicylo[3.2.0]hept-3'-yl]propionate]
IC50 [1]: 0.09 µg/mL (≈ 0.293 µM)

O=C(OCc1ccccc1)[C@H](O)[C@H](O)[C@H]1CN2C(=O)C[C@@H]2O1 [Compound 7, benzyl(2R,3S)-2,3-dihydroxy-3-[(3'R,5'S)-7'-oxo-1'-aza-4'-oxabicyclo[3.2.0]hept-3'-yl]propionate]
IC50 [1]: 0.09 µg/mL (≈ 0.293 µM)

CC(=O)O[C@@H]([C@H]1CN2C(=O)C[C@@H]2O1)[C@@H](N)C(=O)O [Compound 12a, 3(R)-acetoxy-2(R)-amino-3-[(3'R,5'S)-7'-oxo-1'-aza-4'-oxabicyclo[3.2.0]hept-3'-yl]propionic acid]
IC50 [1]: 3 µg/mL (≈ 11.6 µM)

N[C@@H](C(=O)O)[C@@H](OC(=O)c1ccccc1)[C@H]1CN2C(=O)C[C@@H]2O1 [Compound 12b, 2(R)-amino-3(R)-benzoyloxy-3-[(3'R,5'S)-7'-oxo-1'-aza-4'-oxabicyclo[3.2.0]hept-3'-yl]propionic acid]
IC50 [1]: 0.3 µg/mL (≈ 0.937 µM) | Mortality in 12 days ([2]; 5 mg/kg/day): 0/7 | Mortality in 12 days ([2]; 10 mg/kg/day): 0/7 | Mortality in 12 days ([2]; 20 mg/kg/day): 0/7 | Cell growth inhibition rate ([2]; 5 mg/kg): 19% | Cell growth inhibition rate ([2]; 10 mg/kg): 19% | Cell growth inhibition rate ([2]; 20 mg/kg): 31%

CO[C@H]([C@H](N)C(=O)O)[C@H]1CN2C(=O)C[C@@H]2O1 [Compound 32a, 3-[(3'R,5'S)-7'-oxo-1'-aza-4'-oxabicyclo[3.2.0]hept-3'-yl]-2(S)-amino-3(R)-methoxypropionic acid]
IC50 [1]: 0.03 µg/mL (≈ 0.13 µM)

N[C@H](C(=O)O)[C@@H](OCc1ccccc1)[C@H]1CN2C(=O)C[C@@H]2O1 [Compound 32b, 3-[(3'R,5'S)-7'-oxo-1'-aza-4'-oxabicyclo[3.2.0]hept-3'-yl]-2(S)-amino-3(R)-benzyloxypropionic acid]
IC50 [1]: 0.06 µg/mL (≈ 0.196 µM) | Mortality in 12 days ([2]; 0.1 mg/kg/day): 0/6 | Mortality in 12 days ([2]; 1.0 mg/kg/day): 0/6 | Cell growth inhibition rate ([2]; 0.1 mg/kg): 12% | Cell growth inhibition rate ([2]; 1 mg/kg): 38%

N[C@H](C(=O)O)[C@@H](OCc1ccc(F)cc1)[C@H]1CN2C(=O)C[C@@H]2O1 [Compound 32c, 3-[(3'R,5'S)-7'-oxo-1'-aza-4'-oxabicyclo[3.2.0]hept-3'-yl]-2(S)-amino-3(R )-(4"-fluorobenzyl)oxy-propionic acid]
IC50 [1]: 0.04 µg/mL (≈ 0.123 µM)

COc1ccc(CO[C@H]([C@H](N)C(=O)O)[C@H]2CN3C(=O)C[C@@H]3O2)cc1 [Compound 32d, 3-[(3'R,5'S)-7'-oxo-1'-aza-4'-oxabicyclo[3.2.0]hept-3'-yl]-2(S)-amino-3(R)-(4"-methoxybenzyl)oxypropionic acid]
IC50 [1]: 0.09 µg/mL (≈ 0.268 µM)

N[C@H](C(=O)O)[C@@H](OCC1CC1)[C@H]1CN2C(=O)C[C@@H]2O1 [Compound 32e, 3-[(3'R,5'S)-7'-oxo-1'-aza-4'-oxabicyclo[3.2.0]hept-3'-yl]-2(S)-amino-3(R )-cyclopropylmethyloxypropionic acid]
IC50 [1]: 0.4 µg/mL (≈ 1.48 µM)

O=C(OC(c1ccccc1)c1ccccc1)[C@H]([C@@H](OCc1ccccc1)[C@H]1CN2C(=O)C[C@@H]2O1)N(Cc1ccccc1)C(=O)OCc1ccccc1 [Compound 42, diphenylmethyl 3-[(3'R,5'S)-7'-oxo-1'-aza-4'-oxabicyclo[3.2.0]hept-3'-yl]-2(S)-(N-benzyloxycarbonyl-N-benzyl)amino-3(R)-benzyloxypropionate]
IC50 [1]: 3 µg/mL (≈ 4.31 µM)

O=C(OC(c1ccccc1)c1ccccc1)[C@H]([C@@H](OCc1ccccc1)[C@H]1CN2C(=O)C[C@H]2O1)N(Cc1ccccc1)C(=O)OCc1ccccc1 [Compound 43, diphenylmethyl 3-[(3'R,5'R)-7'-oxo-1'-aza-4'-oxabicyclo[3.2.0]hept-3'-yl]-2(S)-(N-benzyloxycarbonyl-N-benzyl)amino-3(R)-benzyloxypropionate]
IC50 [1]: 3 µg/mL (≈ 4.31 µM)
